Assay results: patent US20240360177A1, “PEPTIDES WITH ANTIMICROBIAL ACTIVITIES” (priority 2021, published 2024)
Values after ≈ are worked out from the molar mass of the structure shown. Read-outs that look alike come from different tables or passages of the source. Starred links: 1 amine or outer side, 2 acyl side, 3 side chain; linkers in the order of their positions; H or OH if unused. Non-standard residues stand in square brackets, D forms with d. Residues, ends and D or L forms follow the SMILES beside them. Groups on a side chain read outwards from the residue. *: point of attachment. N(2-Aminoethyl)Gly = O=C(CN(CCN[*:3])[*:1])[*:2]; Morpholinoacetyl = O=C(CN1CCOCC1)*; NH(4-F-phenyl) = Fc1ccc(N*)cc1; Aoc = NCCCCCCCC(=O)O; CO = O=C([*:1])[*:2]; Inp = O=C(O)C1CCNCC1; AEA = NCCOCC(=O)O; Ava = NCCCCC(=O)O; Ms = CS(=O)(=O)*

Compound	MIC C. tropicalis (C. tropicalis; 24 h)	MIC C. albicans (C. albicans; 24 h)	MIC C. parapsilosis (C. parapsilosis; 24 h)	MIC C. dubliniensis (C. dubliniensis; 24 h)	MIC C. krusei (C. krusei; 24 h)	MIC C. auris (C. auris; 24 h)	MIC C. glabrata (C. glabrata; 24 h)	MIC C. tropicalis (C. tropicalis)	MIC C. albicans (C. albicans)	MIC C. parapsilosis (C. parapsilosis)	MIC C. dubliniensis (C. dubliniensis)	MIC C. krusei (C. krusei)	MIC C. auris (C. auris)	MIC C. glabrata (C. glabrata)
N=C(N)NCCC[C@H](NC(=O)[C@@H](CCCNC(=N)N)NC(=O)[C@H](CCCNC(=N)N)NC(=O)[C@@H](CCCNC(=N)N)NC(=O)[C@@H]1CCCN1C(=O)[C@H](CCCNC(=N)N)NC(=O)[C@@H](CCCNC(=N)N)NC(=O)[C@H](CCCNC(=N)N)NC(=O)[C@@H](CCCNC(=N)N)NC(=O)[C@@H]1CCCN1C(=O)[C@@H](CCCNC(=N)N)NC(=O)[C@H](CCCNC(=N)N)NC(=O)[C@@H](CCCNC(=N)N)NC(=O)[C@@H]1CCCN1C(=O)[C@@H](CCCNC(=N)N)NC(=O)[C@H](CCCNC(=N)N)NC(=O)[C@@H](CCCNC(=N)N)NC(=O)CN1CCOCC1)C(N)=O [SEQ ID NO: 59, MorpholineCH2C(O)NH-rRr-P-rRr-P-rRrR-P-rRrR-NH2] (Morpholinoacetyl-[dR]R[dR]P[dR]R[dR]P[dR]R[dR]RP[dR]R[dR]R-NH2)	0.5 mg/L (≈ 0.191 µM)	0.5 mg/L (≈ 0.191 µM)	0.5 mg/L (≈ 0.191 µM)	0.5 mg/L (≈ 0.191 µM)	2 mg/L (≈ 0.763 µM)	4 mg/L (≈ 1.53 µM)	0.5 mg/L (≈ 0.191 µM)	–	–	–	–	–	–	–
N=C(N)NCCC[C@@H](N)C(=O)N[C@@H](CCCNC(=N)N)C(=O)N[C@H](CCCNC(=N)N)C(=O)N[C@@H](CCCNC(=N)N)C(=O)N1CCC[C@H]1C(=O)N[C@H](CCCNC(=N)N)C(=O)N[C@@H](CCCNC(=N)N)C(=O)N[C@H](CCCNC(=N)N)C(=O)N[C@@H](CCCNC(=N)N)C(=O)N1CCC[C@H]1C(=O)N[C@H](CCCNC(=N)N)C(=O)N[C@@H](CCCNC(=N)N)C(=O)N[C@H](CCCNC(=N)N)C(=O)N[C@@H](CCCNC(=N)N)C(N)=O [SEQ ID NO: 67, rRrR-P-rRrR-P-rRrR-NH2] (H-[dR]R[dR]RP[dR]R[dR]RP[dR]R[dR]R-NH2)	0.5 mg/L (≈ 0.24 µM)	0.25 mg/L (≈ 0.12 µM)	0.25 mg/L (≈ 0.12 µM)	0.25 mg/L (≈ 0.12 µM)	0.5 mg/L (≈ 0.24 µM)	4 mg/L (≈ 1.92 µM)	0.5 mg/L (≈ 0.24 µM)	–	–	–	–	–	–	–
CS(=O)(=O)N[C@H](CCCNC(=N)N)C(=O)N[C@@H](CCCNC(=N)N)C(=O)N[C@H](CCCNC(=N)N)C(=O)N1CCC[C@H]1C(=O)N[C@H](CCCNC(=N)N)C(=O)N[C@@H](CCCNC(=N)N)C(=O)N[C@H](CCCNC(=N)N)C(=O)N1CCC[C@H]1C(=O)N[C@H](CCCNC(=N)N)C(=O)N[C@@H](CCCNC(=N)N)C(=O)N[C@H](CCCNC(=N)N)C(=O)N[C@@H](CCCNC(=N)N)C(=O)N1CCC[C@H]1C(=O)N[C@H](CCCNC(=N)N)C(=O)N[C@@H](CCCNC(=N)N)C(=O)N[C@H](CCCNC(=N)N)C(=O)N[C@@H](CCCNC(=N)N)C(N)=O [SEQ ID NO: 56, CH3SO2NH-rRr-P-rRr-P-rRrR-P-rRrR-NH2] (Ms-[dR]R[dR]P[dR]R[dR]P[dR]R[dR]RP[dR]R[dR]R-NH2)	0.5 mg/L (≈ 0.194 µM)	0.5 mg/L (≈ 0.194 µM)	0.25 mg/L (≈ 0.0972 µM)	0.5 mg/L (≈ 0.194 µM)	1 mg/L (≈ 0.389 µM)	0.5 mg/L (≈ 0.194 µM)	0.5 mg/L (≈ 0.194 µM)	–	–	–	–	–	–	–
rRr-(Igl)-rRr-(Igl)-rRrR-(Igl)-rRrR-NH2 [SEQ ID NO: 75]	–	–	–	–	–	–	–	0.5 mg/L	0.5 mg/L	0.5 mg/L	0.5 mg/L	0.5 mg/L	0.5 mg/L	0.5 mg/L
N=C(N)NCCC[C@H](NC(=O)[C@@H](CCCNC(=N)N)NC(=O)[C@H](CCCNC(=N)N)NC(=O)[C@@H](CCCNC(=N)N)NC(=O)[C@@H]1CCCN1C(=O)[C@H](CCCNC(=N)N)NC(=O)[C@@H](CCCNC(=N)N)NC(=O)[C@H](CCCNC(=N)N)NC(=O)[C@@H](CCCNC(=N)N)NC(=O)[C@@H]1CCCN1C(=O)[C@@H](CCCNC(=N)N)NC(=O)[C@H](CCCNC(=N)N)NC(=O)[C@@H](CCCNC(=N)N)NC(=O)[C@@H]1CCCN1C(=O)[C@@H](CCCNC(=N)N)NC(=O)[C@H](CCCNC(=N)N)NC(=O)[C@@H](CCCNC(=N)N)NC(=O)Nc1ccc(F)cc1)C(N)=O [SEQ ID NO: 57, 4-FPhNHC(O)NH-rRr-P-rRr-P-rRrR-P-rRrR-NH2] ({NH(4-F-phenyl)-CO}-[dR]R[dR]P[dR]R[dR]P[dR]R[dR]RP[dR]R[dR]R-NH2)	0.5 mg/L (≈ 0.19 µM)	0.5 mg/L (≈ 0.19 µM)	0.5 mg/L (≈ 0.19 µM)	0.5 mg/L (≈ 0.19 µM)	1 mg/L (≈ 0.38 µM)	0.5 mg/L (≈ 0.19 µM)	0.5 mg/L (≈ 0.19 µM)	–	–	–	–	–	–	–
rRr-(Apg)-rRr-(Apg)-rRrR-(Apg)-rRrR-NH2 [SEQ ID NO: 38]	0.5 mg/L	0.5 mg/L	0.25 mg/L	0.5 mg/L	0.25 mg/L	2 mg/L	1 mg/L	–	–	–	–	–	–	–
N=C(N)NCCC[C@@H](N)C(=O)N[C@@H](CCCNC(=N)N)C(=O)N[C@H](CCCNC(=N)N)C(=O)N1CCC(C(=O)N[C@H](CCCNC(=N)N)C(=O)N[C@@H](CCCNC(=N)N)C(=O)N[C@H](CCCNC(=N)N)C(=O)N2CCC(C(=O)N[C@H](CCCNC(=N)N)C(=O)N[C@@H](CCCNC(=N)N)C(=O)N[C@H](CCCNC(=N)N)C(=O)N[C@@H](CCCNC(=N)N)C(=O)N3CCC(C(=O)N[C@H](CCCNC(=N)N)C(=O)N[C@@H](CCCNC(=N)N)C(=O)N[C@H](CCCNC(=N)N)C(=O)N[C@@H](CCCNC(=N)N)C(N)=O)CC3)CC2)CC1 [SEQ ID NO: 74, rRr-(Inp)-rRr-(Inp)-rRrR-(Inp)-rRrR-NH2] (H-[dR]R[dR][Inp][dR]R[dR][Inp][dR]R[dR]R[Inp][dR]R[dR]R-NH2)	0.5 mg/L (≈ 0.197 µM)	0.5 mg/L (≈ 0.197 µM)	0.25 mg/L (≈ 0.0985 µM)	0.5 mg/L (≈ 0.197 µM)	1 mg/L (≈ 0.394 µM)	0.5 mg/L (≈ 0.197 µM)	0.5 mg/L (≈ 0.197 µM)	–	–	–	–	–	–	–
N=C(N)NCCC[C@@H](N)C(=O)N[C@@H](CCCNC(=N)N)C(=O)N[C@H](CCCNC(=N)N)C(=O)NCCCCC(=O)N[C@H](CCCNC(=N)N)C(=O)N[C@@H](CCCNC(=N)N)C(=O)N[C@H](CCCNC(=N)N)C(=O)NCCOCC(=O)N[C@H](CCCNC(=N)N)C(=O)N[C@@H](CCCNC(=N)N)C(=O)N[C@H](CCCNC(=N)N)C(=O)N[C@@H](CCCNC(=N)N)C(=O)NCCOCC(=O)N[C@H](CCCNC(=N)N)C(=O)N[C@@H](CCCNC(=N)N)C(=O)N[C@H](CCCNC(=N)N)C(=O)N[C@@H](CCCNC(=N)N)C(N)=O [SEQ ID NO: 51, rRr-(Ava)-rRr-(Aea)-rRrR-(Aea)-rRrR-NH2] (H-[dR]R[dR][Ava][dR]R[dR][AEA][dR]R[dR]R[AEA][dR]R[dR]R-NH2)	0.5 mg/L (≈ 0.2 µM)	0.5 mg/L (≈ 0.2 µM)	0.25 mg/L (≈ 0.0998 µM)	0.25 mg/L (≈ 0.0998 µM)	–	–	1 mg/L (≈ 0.399 µM)	–	–	–	–	–	–	–
N=C(N)NCCC[C@@H](N)C(=O)N[C@@H](CCCNC(=N)N)C(=O)N[C@H](CCCNC(=N)N)C(=O)NCCCCCCCC(=O)N[C@H](CCCNC(=N)N)C(=O)N[C@@H](CCCNC(=N)N)C(=O)N[C@H](CCCNC(=N)N)C(=O)NCCCCCCCC(=O)N[C@H](CCCNC(=N)N)C(=O)N[C@@H](CCCNC(=N)N)C(=O)N[C@H](CCCNC(=N)N)C(=O)N[C@@H](CCCNC(=N)N)C(=O)NCCCCCCCC(=O)N[C@H](CCCNC(=N)N)C(=O)N[C@@H](CCCNC(=N)N)C(=O)N[C@H](CCCNC(=N)N)C(=O)N[C@@H](CCCNC(=N)N)C(=O)O [SEQ ID NO: 30, rRr-(Aoa)-rRr-(Aoa)-rRrR-(Aoa)-rRrR] (H-[dR]R[dR][Aoc][dR]R[dR][Aoc][dR]R[dR]R[Aoc][dR]R[dR]R-OH)	1 mg/L (≈ 0.38 µM)	1 mg/L (≈ 0.38 µM)	0.5 mg/L (≈ 0.19 µM)	0.5 mg/L (≈ 0.19 µM)	–	–	1 mg/L (≈ 0.38 µM)	–	–	–	–	–	–	–
N=C(N)NCCC[C@@H](N)C(=O)N[C@@H](CCCNC(=N)N)C(=O)N[C@H](CCCNC(=N)N)C(=O)NCCNCC(=O)N[C@H](CCCNC(=N)N)C(=O)N[C@@H](CCCNC(=N)N)C(=O)N[C@H](CCCNC(=N)N)C(=O)NCCCCC(=O)N[C@H](CCCNC(=N)N)C(=O)N[C@@H](CCCNC(=N)N)C(=O)N[C@H](CCCNC(=N)N)C(=O)N[C@@H](CCCNC(=N)N)C(=O)NCCCCC(=O)N[C@H](CCCNC(=N)N)C(=O)N[C@@H](CCCNC(=N)N)C(=O)N[C@H](CCCNC(=N)N)C(=O)N[C@@H](CCCNC(=N)N)C(N)=O [SEQ ID NO: 41, rRr-(Aeg)-rRr-(Ava)-rRrR-(Ava)-rRrR-NH2] (H-[N(2-Aminoethyl)Gly]([dR-Arg-dR])[dR]R[dR][Ava][dR]R[dR]R[Ava][dR]R[dR]R-NH2)	1 mg/L (≈ 0.4 µM)	1 mg/L (≈ 0.4 µM)	1 mg/L (≈ 0.4 µM)	0.5 mg/L (≈ 0.2 µM)	–	–	2 mg/L (≈ 0.799 µM)	–	–	–	–	–	–	–
N=C(N)NCCC[C@@H](N)C(=O)N[C@@H](CCCNC(=N)N)C(=O)N[C@H](CCCNC(=N)N)C(=O)NCCCCC(=O)N[C@H](CCCNC(=N)N)C(=O)N[C@@H](CCCNC(=N)N)C(=O)N[C@H](CCCNC(=N)N)C(=O)NCCNCC(=O)N[C@H](CCCNC(=N)N)C(=O)N[C@@H](CCCNC(=N)N)C(=O)N[C@H](CCCNC(=N)N)C(=O)N[C@@H](CCCNC(=N)N)C(=O)NCCCCC(=O)N[C@H](CCCNC(=N)N)C(=O)N[C@@H](CCCNC(=N)N)C(=O)N[C@H](CCCNC(=N)N)C(=O)N[C@@H](CCCNC(=N)N)C(N)=O [SEQ ID NO: 42, rRr-(Ava)-rRr-(Aeg)-rRrR-(Ava)-rRrR-NH2]	0.5 mg/L (≈ 0.2 µM)	1 mg/L (≈ 0.4 µM)	0.5 mg/L (≈ 0.2 µM)	0.5 mg/L (≈ 0.2 µM)	–	–	1 mg/L (≈ 0.4 µM)	–	–	–	–	–	–	–
